From patent publication US10017506B2, “ATX modulating agents” (BIOGEN MA INC., priority 2012, dated 2018)

Each compound was assayed against T1, Human ATX protein (Homo sapiens, UniProt Q13822) (assay: ATX biochemical FRET assay with FS-3 substrate). Conditions: FRET substrate FS-3 2 μM, ATX 1.0 μg/mL, 30 minutes pre-incubation, 2 hours at room temperature; read-out: IC50.
T1 construct: made in house
Excerpt: ATX (Autotaxin) is a 125 KDa glycoprotein with lysophospholipase D (LPLD) activity that generates the bioactive lipid lysophosphatidic acid (LPA) from lysophosphatidylcholine (LPC). The ATX biochemical assay utilizes a FRET (fluorescence resonance energy transfer) technology platform. The fluorescence signal of FRET substrate FS-3 is quenched due to intra-molecular FRET of a fluorophore to a non-fluorescing quencher (Ferguson, C. G., et al., Org Lett. 2006 May 11; 8(10): 2023-2026, which is incorporated by reference in its entirety). ATX catalyzes the hydrolysis of the substrate which separates the dabsyl quencher from the fluorescein reporter, which becomes fluorescent. The reaction is monitored by a SpectraMax M5 (Molecular Devices, Sunnyvale, Calif.) with at excitation wavelength 485 nm and emission wavelength […].
Fatty acid free-BSA (Sigma A8806): 10 mg/mL in H2O, stored at 4° C.
2×ATX assay buffer: 100 mM Tris, 280 mM NaCl, 10 mM KCl, 2 mM CaCl2, 2 mM MgCl2, pH 7.4.
Human ATX protein: expressed and purified in house. Stored at −80° C.
Substrate FS-3 (Echelon, L-2000): 100 μg in 77.74 μL H2O (1 mM stock), stored at −20° C.
384-well flat bottom plates—Corning #3575.
Compound dilution—All compounds were provided at 10 mM in 100% DMSO. In the first well, 2 μL of 10 mM compound was added to 78 μL of DMSO (1:40 dilution). In subsequent wells 3-fold dilution (total 10 dilutions) were performed.
1×ATX assay buffer was made up with a final concentration of 1 mg/mL fatty acid free-BSA using 2×ATX assay buffer, 10 mg/ml fatty acid free-BSA and ddH2O.
ATX protein was diluted with 1×ATX assay buffer to a concentration of 1.32 μg/mL (1.32×). 38 μL was added per well to the assay plate. The final concentration of ATX in the reaction as 1.0 μg/mL.
2 μL per well of compounds was transferred to provide the desired concentration. The plate was centrifuged, then incubated at room temperature for 30 minutes on the shaker.
Then, 10 μL was added per well to the assay plate. […] The plate was centrifuged. The plate was kept shaking at room temperature for 2 hours. Because FS-3 substrate is light sensitive, plates were kept covered and protected from light.
Fluorescence was measured using SpectraMax M5 (excitation at 485 nm/emission at 538 nm, top read).

IC50 [nM] | SMILES
≤ 100 | CC[C@H]1CC[C@@H](Oc2ccc3ccc(C(C)NC4CC(C(=O)O)C4(C)C)cc3c2C(F)(F)F)CC1 (stereo partly drawn) [Example 59, 3-((1-(7-((cis-4-ethylcyclohexyl)oxy)-8-(trifluoromethyl)naphthalen-2-yl)ethyl)amino)-2,2-dimethylcyclobutanecarboxylic acid]
≤ 250 | CCC(c1ccc2ccc(O[C@H]3CC[C@@H](CC)CC3)c(C(F)(F)F)c2c1)N1CCC(C(=O)O)CC1 (stereo partly drawn) [Example 60, 1-(1-(7-((cis-4-ethylcyclohexyl)oxy)-8-(trifluoromethyl)naphthalen-2-yl)propyl)piperidine-4-carboxylic acid]
≤ 250 | CCC(c1ccc2ccc(O[C@H]3CC[C@@H](CC)CC3)c(C(F)(F)F)c2c1)N1CCC[C@H](CC(=O)O)C1 (stereo partly drawn) [Example 61, 2-((3R)-1-(1-(7-((cis-4-ethylcyclohexyl)oxy)-8-(trifluoromethyl)naphthalen-2-yl)propyl)piperidin-3-yl)acetic acid]
≤ 250 | CC[C@H]1CC[C@@H](Oc2ccc3ccc(C(C)N[C@H]4C[C@@H](C(=O)O)C4(C)C)cc3c2Cl)CC1 (stereo partly drawn) [Example 67, (1R,3S)-3-((1-(8-chloro-7-((cis-4-ethylcyclohexyl)oxy)naphthalen-2-yl)ethyl)amino)-2,2-dimethylcyclobutanecarboxylic acid]
≤ 500 | CC[C@H]1CC[C@@H](Oc2ccc3ccc(C(C)N4CCC(C(=O)O)CC4)cc3c2C#N)CC1 (stereo partly drawn) [Example 72, 1-(1-(8-cyano-7-((cis-4-ethylcyclohexyl)oxy)naphthalen-2-yl)ethyl)piperidine-4-carboxylic acid]
≤ 250 | CC1(C)C(NCc2ccc3ccc(O[C@H]4CC[C@@H](C)CC4)c(C(F)(F)F)c3c2)CC1C(=O)O (stereo partly drawn) [Example 78, 2,2-dimethyl-3-(((7-((cis-4-methylcyclohexyl)oxy)-8-(trifluoromethyl)naphthalen-2-yl)methyl)amino)cyclobutanecarboxylic acid]
≤ 250 | CC(c1ccc2ccc(O[C@H]3CC[C@@H](C)CC3)c(C(F)(F)F)c2c1)N1CCC(C(=O)O)CC1 (stereo partly drawn) [Example 80, 1-(1-(7-((cis-4-methylcyclohexyl)oxy)-8-(trifluoromethyl)naphthalen-2-yl)ethyl)piperidine-4-carboxylic acid]
≤ 250 | CC(c1ccc2ccc(O[C@H]3CC[C@@H](C)CC3)c(C(F)(F)F)c2c1)N1CCC[C@H](CC(=O)O)C1 (stereo partly drawn) [Example 81, 2-((3R)-1-(1-(7-((cis-4-methylcyclohexyl)oxy)-8-(trifluoromethyl)naphthalen-2-yl)ethyl)piperidin-3-yl)acetic acid]
≤ 100 | CC(NC1CC(C(=O)O)C1(C)C)c1ccc2ccc(O[C@H]3CC[C@@H](C)CC3)c(C(F)(F)F)c2c1 (stereo partly drawn) [Example 82, 2,2-dimethyl-3-((1-(7-((cis-4-methylcyclohexyl)oxy)-8-(trifluoromethyl)naphthalen-2-yl)ethyl)amino)cyclobutanecarboxylic acid]

Same assay, conditions: IC50, FRET substrate FS-3 2 μM, ATX 1.0 μg/mL, 30 minutes pre-incubation, 2 hours at room temperature

SMILES | IC50 [nM]
CC[C@H]1CC[C@@H](Oc2ccc3ccc(C(C)N4C5CCC4CC(C(=O)O)C5)cc3c2C(F)F)CC1 (stereo partly drawn) [Example 63, 8-(1-(8-(difluoromethyl)-7-((cis-4-ethylcyclohexyl)oxy)naphthalen-2-yl)ethyl)-8-azabicyclo[3.2.1]octane-3-carboxylic acid] | ≤ 100
CC[C@H]1CC[C@@H](Oc2ccc3ccc(C(C)N4C5CCC4CC(C(=O)O)C5)cc3c2Cl)CC1 (stereo partly drawn) [Example 65, 8-(1-(8-chloro-7-((cis-4-ethylcyclohexyl)oxy)naphthalen-2-yl)ethyl)-8-azabicyclo[3.2.1]octane-3-carboxylic acid] | ≤ 250
CC[C@H]1CC[C@@H](Oc2ccc3ccc(C(C)N4C5CCCC4CC(C(=O)O)C5)cc3c2Cl)CC1 (stereo partly drawn) [Example 66, 9-(1-(8-chloro-7-((cis-4-ethylcyclohexyl)oxy)naphthalen-2-yl)ethyl)-9-azabicyclo[3.3.1]nonane-3-carboxylic acid] | ≤ 250
CC[C@H]1CC[C@@H](Oc2ccc3ccc(CN4C5CCC4CC(C(=O)O)C5)cc3c2C#N)CC1 (stereo partly drawn) [Example 70, 8-((8-cyano-7-((cis-4-ethylcyclohexyl)oxy)naphthalen-2-yl)methyl)-8-azabicyclo[3.2.1]octane-3-carboxylic acid] | ≤ 100
CC[C@H]1CC[C@@H](Oc2ccc3ccc(CN4C5CCCC4CC(C(=O)O)C5)cc3c2C#N)CC1 (stereo partly drawn) [Example 71, 9-((8-cyano-7-((cis-4-ethylcyclohexyl)oxy)naphthalen-2-yl)methyl)-9-azabicyclo[3.3.1]nonane-3-carboxylic acid] | ≤ 100
CC[C@H]1CC[C@@H](Oc2ccc3ccc(C(C)N4C5CCC4CC(C(=O)O)C5)cc3c2C#N)CC1 (stereo partly drawn) [Example 73, 8-(1-(8-cyano-7-((cis-4-ethylcyclohexyl)oxy)naphthalen-2-yl)ethyl)-8-azabicyclo[3.2.1]octane-3-carboxylic acid] | ≤ 100
CC[C@H]1CC[C@@H](Oc2ccc3ccc(C(C)N4C5CCCC4CC(C(=O)O)C5)cc3c2C#N)CC1 (stereo partly drawn) [Example 74, 9-(1-(8-cyano-7-((cis-4-ethylcyclohexyl)oxy)naphthalen-2-yl)ethyl)-9-azabicyclo[3.3.1]nonane-3-carboxylic acid] | ≤ 100
C[C@H]1CC[C@@H](Oc2ccc3ccc(CN4C5CCC4CC(C(=O)O)C5)cc3c2Cl)CC1 (stereo partly drawn) [Example 83, 8-((8-chloro-7-((cis-4-methylcyclohexyl)oxy)naphthalen-2-yl)methyl)-8-azabicyclo[3.2.1]octane-3-carboxylic acid] | ≤ 250
C[C@H]1CC[C@@H](Oc2ccc3ccc(CN4C5CCCC4CC(C(=O)O)C5)cc3c2C(F)F)CC1 (stereo partly drawn) [Example 86, 9-((8-(difluoromethyl)-7-((cis-4-methylcyclohexyl)oxy)naphthalen-2-yl)methyl)-9-azabicyclo[3.3.1]nonane-3-carboxylic acid] | ≤ 100
CC(c1ccc2ccc(O[C@H]3CC[C@@H](C)CC3)c(C(F)F)c2c1)N1C2CCC1CC(C(=O)O)C2 (stereo partly drawn) [Example 87, 8-(1-(8-(difluoromethyl)-7-((cis-4-methylcyclohexyl)oxy)naphthalen-2-yl)ethyl)-8-azabicyclo[3.2.1]octane-3-carboxylic acid] | ≤ 100
CC(c1ccc2ccc(O[C@H]3CC[C@@H](C)CC3)c(C(F)F)c2c1)N1C2CCCC1CC(C(=O)O)C2 (stereo partly drawn) [Example 88, 9-(1-(8-(difluoromethyl)-7-((cis-4-methylcyclohexyl)oxy)naphthalen-2-yl)ethyl)-9-azabicyclo[3.3.1]nonane-3-carboxylic acid] | ≤ 100
CC(c1ccc2ccc(O[C@H]3CC[C@@H](C)CC3)c(Cl)c2c1)N1C2CCC1CC(C(=O)O)C2 (stereo partly drawn) [Example 90, 8-(1-(8-chloro-7-((cis-4-methylcyclohexyl)oxy)naphthalen-2-yl)ethyl)-8-azabicyclo[3.2.1]octane-3-carboxylic acid] | ≤ 250
CC(c1ccc2ccc(O[C@H]3CC[C@@H](C)CC3)c(Cl)c2c1)N1C2CCCC1CC(C(=O)O)C2 (stereo partly drawn) [Example 91, 9-(1-(8-chloro-7-((cis-4-methylcyclohexyl)oxy)naphthalen-2-yl)ethyl)-9-azabicyclo[3.3.1]nonane-3-carboxylic acid] | ≤ 250
CCC(c1ccc2ccc(O[C@H]3CC[C@@H](C)CC3)c(Cl)c2c1)N1C2CCC1CC(C(=O)O)C2 (stereo partly drawn) [Example 95, 8-(1-(8-chloro-7-((cis-4-methylcyclohexyl)oxy)naphthalen-2-yl)propyl)-8-azabicyclo[3.2.1]octane-3-carboxylic acid] | ≤ 500
C[C@H]1CC[C@@H](Oc2ccc3ccc(CN4C5CCC4CC(C(=O)O)C5)cc3c2C#N)CC1 (stereo partly drawn) [Example 96, 8-((8-cyano-7-((cis-4-methylcyclohexyl)oxy)naphthalen-2-yl)methyl)-8-azabicyclo[3.2.1]octane-3-carboxylic acid] | ≤ 250
C[C@H]1CC[C@@H](Oc2ccc3ccc(CN4C5CCCC4CC(C(=O)O)C5)cc3c2C#N)CC1 (stereo partly drawn) [Example 98, 9-((8-cyano-7-((cis-4-methylcyclohexyl)oxy)naphthalen-2-yl)methyl)-9-azabicyclo[3.3.1]nonane-3-carboxylic acid] | ≤ 100
CC(c1ccc2ccc(O[C@H]3CC[C@@H](C)CC3)c(C#N)c2c1)N1C2CCC1CC(C(=O)O)C2 (stereo partly drawn) [Example 101, 8-(1-(8-cyano-7-((cis-4-methylcyclohexyl)oxy)naphthalen-2-yl)ethyl)-8-azabicyclo[3.2.1]octane-3-carboxylic acid] | ≤ 100
